In brackets after ≈: the same amount, converted by molar mass.
Assays:
[1] = system: Streptococcus sp. 'group B'; test: Antimicrobial activity against group B Streptococcus sp. 'group B' serotype II isolate 3776-04 by broth dilution method; type: functional
[2] = system: Streptococcus sp. 'group B'; test: Antimicrobial activity against group B Streptococcus sp. 'group B' serotype IA isolate 5662-05 by broth dilution method; type: functional
[3] = system: Streptococcus sp. 'group B'; test: Antimicrobial activity against group B Streptococcus sp. 'group B' serotype IB isolate 5436-03 by broth dilution method; type: functional
[4] = system: Streptococcus sp. 'group B'; test: Antimicrobial activity against group B Streptococcus sp. 'group B' serotype III isolate 8607-03 expressing pbp2x Q557E mutant and harboring plasmid expressing wild-type pbp2x by broth dilution method; type: functional
[5] = system: Streptococcus sp. 'group B'; test: Antimicrobial activity against group B Streptococcus sp. 'group B' isolate 4214-03 by broth dilution method; type: functional
[6] = system: Streptococcus sp. 'group B'; test: Antimicrobial activity against group B Streptococcus sp. 'group B' serotype V isolate 5677-04 by broth dilution method; type: functional
[7] = system: Streptococcus sp. 'group B'; test: Antimicrobial activity against group B Streptococcus sp. 'group B' isolate 7368-04 by broth dilution method; type: functional
[8] = system: Streptococcus sp. 'group B'; test: Antimicrobial activity against group B Streptococcus sp. 'group B' serotype III isolate 7037-99 by broth dilution method; type: functional
[9] = system: Streptococcus sp. 'group B'; test: Antimicrobial activity against group B Streptococcus sp. 'group B' serotype IV isolate 3454-03 by broth dilution method; type: functional
[10] = system: Streptococcus sp. 'group B'; test: Antimicrobial activity against group B Streptococcus sp. 'group B' serotype V isolate 4857-03 by broth dilution method; type: functional
[11] = system: Streptococcus sp. 'group B'; test: Antimicrobial activity against group B Streptococcus sp. 'group B' serotype III isolate 8607-03 expressing pbp2x Q557E mutant and harboring empty vector by broth dilution method; type: functional
[12] = system: Streptococcus sp. 'group B'; test: Antimicrobial activity against group B Streptococcus sp. 'group B' serotype IA isolate 6649-05 by broth dilution method; type: functional
[13] = system: Streptococcus sp. 'group B'; test: Antimicrobial activity against group B Streptococcus sp. 'group B' serotype III isolate 3789-04 expressing pbp2x Q557E mutant and multilocus sequence type ST19 by broth dilution method; type: functional
[14] = system: Streptococcus sp. 'group B'; test: Antimicrobial activity against group B Streptococcus sp. 'group B' serotype IA isolate 3047-05 by broth dilution method; type: functional
[15] = system: Streptococcus sp. 'group B'; test: Antimicrobial activity against group B Streptococcus sp. 'group B' serotype III isolate 7507-03 expressing pbp2x Q557E mutant and multilocus sequence type ST19 by broth dilution method; type: functional
[16] = system: Streptococcus sp. 'group B'; test: Antimicrobial activity against group B Streptococcus sp. 'group B' serotype IA isolate 7490-03 by broth dilution method; type: functional
[17] = system: Streptococcus sp. 'group B'; test: Antimicrobial activity against group B Streptococcus sp. 'group B' serotype III isolate 3444-99 by broth dilution method; type: functional
[18] = system: Streptococcus sp. 'group B'; test: Antimicrobial activity against group B Streptococcus sp. 'group B' serotype II isolate 9051-04 by broth dilution method; type: functional
[19] = system: Streptococcus sp. 'group B'; test: Antimicrobial activity against group B Streptococcus sp. 'group B' serotype III isolate 8607-03 expressing pbp2x Q557E mutant and multilocus sequence type ST19 by broth dilution method; type: functional
[20] = system: Streptococcus sp. 'group B'; test: Antimicrobial activity against group B Streptococcus sp. 'group B' serotype III isolate 8607 with chromosomal pbp2x(Q557E) replaced by wild-type pbp2x through allelic exchange by broth dilution method
[21] = system: Streptococcus sp. 'group B'; test: Antimicrobial activity against group B Streptococcus sp. 'group B' isolate 6149-03 by broth dilution method; type: functional
[22] = system: Streptococcus sp. 'group B'; test: Antimicrobial activity against group B Streptococcus sp. 'group B' serotype IA isolate 9012-04 by broth dilution method; type: functional
[23] = system: Streptococcus sp. 'group B'; test: Antimicrobial activity against group B Streptococcus sp. 'group B' serotype III isolate 6138-03 expressing pbp2x Q557E mutant and multilocus sequence type ST19 by broth dilution method; type: functional
[24] = system: Streptococcus sp. 'group B'; test: Antimicrobial activity against group B Streptococcus sp. 'group B' serotype V isolate 9171-03 by broth dilution method; type: functional
[25] = system: Streptococcus sp. 'group B'; test: Antimicrobial activity against group B Streptococcus sp. 'group B' serotype V isolate 3386-05 by broth dilution method; type: functional

| SMILES | MIC [1] [µg/mL] | MIC [2] [µg/mL] | MIC [3] [µg/mL] | MIC [4] [µg/mL] | MIC [5] [µg/mL] | MIC [6] [µg/mL] | MIC [7] [µg/mL] | MIC [8] [µg/mL] | MIC [9] [µg/mL] | MIC [10] [µg/mL] | MIC [11] [µg/mL] | MIC [13] [µg/mL] | MIC [14] [µg/mL] | MIC [15] [µg/mL] | MIC [16] [µg/mL] | MIC [17] [µg/mL] | MIC [18] [µg/mL] | MIC [19] [µg/mL] | MIC [20] [µg/mL] | MIC [21] [µg/mL] | other results |
| --- | --- | --- | --- | --- | --- | --- | --- | --- | --- | --- | --- | --- | --- | --- | --- | --- | --- | --- | --- | --- | --- |
| CC1(C)S[C@@H]2[C@H](NC(=O)[C@H](N)c3ccccc3)C(=O)N2[C@H]1C(=O)O [AMPICILLIN] | 0.25 (≈ 0.715 µM) | 0.12 (≈ 0.343 µM) | 0.06 (≈ 0.172 µM) | 0.06 (≈ 0.172 µM) | 0.25 (≈ 0.715 µM) | 0.25 (≈ 0.715 µM) | 0.12 (≈ 0.343 µM) | 0.12 (≈ 0.343 µM) | 0.25 (≈ 0.715 µM) | 0.25 (≈ 0.715 µM) | 0.06 (≈ 0.172 µM) | 0.12 (≈ 0.343 µM) | 0.12 (≈ 0.343 µM) | 0.12 (≈ 0.343 µM) | 0.12 (≈ 0.343 µM) | 0.12 (≈ 0.343 µM) | 0.12 (≈ 0.343 µM) | 0.06 (≈ 0.172 µM) | 0.06 (≈ 0.172 µM) | 0.12 (≈ 0.343 µM) | MIC [12]: 0.25 µg/mL (≈ 0.715 µM); MIC [22]: 0.06 µg/mL (≈ 0.172 µM); MIC [23]: 0.06 µg/mL (≈ 0.172 µM); MIC [24]: 0.12 µg/mL (≈ 0.343 µM); MIC [25]: 0.06 µg/mL (≈ 0.172 µM) |
| Cc1nnc(SCC2=C(C(=O)O)N3C(=O)[C@@H](NC(=O)Cn4cnnn4)[C@H]3SC2)s1 [CEFAZOLIN] | 0.25 (≈ 0.55 µM) | 0.25 (≈ 0.55 µM) | 1 (≈ 2.2 µM) | 2 (≈ 4.4 µM) | 0.5 (≈ 1.1 µM) | 1 (≈ 2.2 µM) | 0.5 (≈ 1.1 µM) | 0.25 (≈ 0.55 µM) | 0.5 (≈ 1.1 µM) | 0.5 (≈ 1.1 µM) | 16 (≈ 35.2 µM) | 1 (≈ 2.2 µM) | 0.25 (≈ 0.55 µM) | 0.5 (≈ 1.1 µM) | 0.25 (≈ 0.55 µM) | 0.25 (≈ 0.55 µM) | 0.25 (≈ 0.55 µM) | 0.5 (≈ 1.1 µM) | 2 (≈ 4.4 µM) | 0.25 (≈ 0.55 µM) | MIC [12]: 0.5 µg/mL (≈ 1.1 µM); MIC [22]: 0.25 µg/mL (≈ 0.55 µM); MIC [23]: 0.5 µg/mL (≈ 1.1 µM); MIC [24]: 0.25 µg/mL (≈ 0.55 µM); MIC [25]: 0.12 µg/mL (≈ 0.264 µM) |
| CO/N=C(\C(=O)N[C@@H]1C(=O)N2C(C(=O)O)=C(COC(C)=O)CS[C@H]12)c1csc(N)n1 [CEFOTAXIME] | 0.12 (≈ 0.263 µM) | 0.06 (≈ 0.132 µM) | 0.25 (≈ 0.549 µM) | 0.015 (≈ 0.0329 µM) | 0.12 (≈ 0.263 µM) | 0.12 (≈ 0.263 µM) | 0.06 (≈ 0.132 µM) | 0.12 (≈ 0.263 µM) | 0.25 (≈ 0.549 µM) | 0.06 (≈ 0.132 µM) | 0.25 (≈ 0.549 µM) | 0.25 (≈ 0.549 µM) | 0.06 (≈ 0.132 µM) | 0.12 (≈ 0.263 µM) | 0.12 (≈ 0.263 µM) | 0.06 (≈ 0.132 µM) | 0.06 (≈ 0.132 µM) | 0.25 (≈ 0.549 µM) | 0.03 (≈ 0.0659 µM) | 0.06 (≈ 0.132 µM) | MIC [12]: 0.12 µg/mL (≈ 0.263 µM); MIC [22]: 0.06 µg/mL (≈ 0.132 µM); MIC [23]: 0.25 µg/mL (≈ 0.549 µM); MIC [24]: 0.12 µg/mL (≈ 0.263 µM); MIC [25]: 0.06 µg/mL (≈ 0.132 µM) |
| CO[C@@]1(NC(=O)Cc2cccs2)C(=O)N2C(C(=O)O)=C(COC(N)=O)CS[C@@H]21 [CEFOXITIN] | 8 (≈ 18.7 µM) | 8 (≈ 18.7 µM) | 16 (≈ 37.4 µM) | 2 (≈ 4.68 µM) | 4 (≈ 9.36 µM) | 16 (≈ 37.4 µM) | 4 (≈ 9.36 µM) | 8 (≈ 18.7 µM) | 8 (≈ 18.7 µM) | 4 (≈ 9.36 µM) | 16 (≈ 37.4 µM) | 16 (≈ 37.4 µM) | 8 (≈ 18.7 µM) | 16 (≈ 37.4 µM) | 2 (≈ 4.68 µM) | 8 (≈ 18.7 µM) | 8 (≈ 18.7 µM) | 16 (≈ 37.4 µM) | 2 (≈ 4.68 µM) | 8 (≈ 18.7 µM) | MIC [12]: 4 µg/mL (≈ 9.36 µM); MIC [22]: 16 µg/mL (≈ 37.4 µM); MIC [23]: 16 µg/mL (≈ 37.4 µM); MIC [24]: 4 µg/mL (≈ 9.36 µM); MIC [25]: 16 µg/mL (≈ 37.4 µM) |
| CO/N=C(\C(=O)N[C@@H]1C(=O)N2C(C(=O)O)=C(COC(N)=O)CS[C@H]12)c1ccco1 [CEFUROXIME] | 0.12 (≈ 0.283 µM) | 0.03 (≈ 0.0707 µM) | 0.25 (≈ 0.589 µM) | 0.06 (≈ 0.141 µM) | 0.12 (≈ 0.283 µM) | 0.12 (≈ 0.283 µM) | 0.06 (≈ 0.141 µM) | 0.06 (≈ 0.141 µM) | 0.06 (≈ 0.141 µM) | 0.06 (≈ 0.141 µM) | 0.5 (≈ 1.18 µM) | 0.12 (≈ 0.283 µM) | 0.06 (≈ 0.141 µM) | 0.12 (≈ 0.283 µM) | 0.06 (≈ 0.141 µM) | 0.06 (≈ 0.141 µM) | 0.06 (≈ 0.141 µM) | 0.12 (≈ 0.283 µM) | 0.06 (≈ 0.141 µM) | 0.06 (≈ 0.141 µM) | MIC [22]: 0.06 µg/mL (≈ 0.141 µM); MIC [23]: 0.25 µg/mL (≈ 0.589 µM); MIC [24]: 0.06 µg/mL (≈ 0.141 µM) |
| CC1(C)S[C@@H]2[C@H](NC(=O)Cc3ccccc3)C(=O)N2[C@H]1C(=O)O [PENICILLIN G] | 0.12 (≈ 0.359 µM) | 0.06 (≈ 0.179 µM) | 0.03 (≈ 0.0897 µM) | 0.015 (≈ 0.0449 µM) | 0.12 (≈ 0.359 µM) | 0.12 (≈ 0.359 µM) | 0.12 (≈ 0.359 µM) | 0.06 (≈ 0.179 µM) | 0.12 (≈ 0.359 µM) | 0.12 (≈ 0.359 µM) | 0.12 (≈ 0.359 µM) | 0.12 (≈ 0.359 µM) | 0.06 (≈ 0.179 µM) | 0.12 (≈ 0.359 µM) | 0.06 (≈ 0.179 µM) | 0.06 (≈ 0.179 µM) | 0.06 (≈ 0.179 µM) | 0.12 (≈ 0.359 µM) | 0.015 (≈ 0.0449 µM) | 0.06 (≈ 0.179 µM) | MIC [12]: 0.12 µg/mL (≈ 0.359 µM); MIC [22]: 0.06 µg/mL (≈ 0.179 µM); MIC [23]: 0.12 µg/mL (≈ 0.359 µM); MIC [24]: 0.06 µg/mL (≈ 0.179 µM); MIC [25]: 0.03 µg/mL (≈ 0.0897 µM) |
